{"source": "patent US20250066286A1", "about": "“COMPOSITIONS OF (Z)-ENDOXIFEN AND METHODS OF ENRICHMENT THEREOF” (Atossa Therapeutics, Inc., priority 2022, published 2025)", "test": "Solvent mixture solubility tests of (Z)-endoxifen", "format": "physicochemical", "method": "To test the solubility of (Z)-endoxifen in varying conditions, 10 mg of (Z)-endoxifen was added to a stoppered tube, and 0.01 ml of the selected solvent was added (1000 mg/ml solution). The tube was shaken vigorously for 1 minute and then incubated at a constant temperature of 25.0° C. for 15 minutes. If the solid was not completed dissolved, the tube was shaken again and placed at the constant temperature of 25.0° C. for another 15 minutes. If the solid was completely dissolved at this step, it was considered to be very soluble in the selected solvent system. If the solid was not dissolved by this step, another 0.09 ml was added (yielding a 100 mg/ml solution) and an attempt to further dissolve the solid was made by the same steps of shaking and incubating twice over as described previously. If the solid was completely dissolved at this step, it was considered freely soluble. If the solid was not dissolved by this step another 0.2 ml was added (yielding a 33.3 mg/ml solution) and an attempt to further dissolve the solid was made by the same steps of shaking and incubating twice over as described previously. If the solid was completely dissolved at this step, it was considered soluble. If the solid was not dissolved by this step another, 0.7 ml was added (yielding a 10 mg/ml solution) and an attempt to further dissolve the solid was made by the same steps of shaking and incubating twice over as described previously. If the solid was completely dissolved at this step, it was considered sparingly soluble. If the solid was not dissolved by this step the sample was considered to be slightly soluble or very slightly soluble and the solution was heated until the boiling point of the solvent system (max 100° C.) under stirring with a rate of 0.5° C. per minute temperature ramp rate to verify the solubility at high temperatures. The hot solution was after cooled to room temperature with a cooling rate of 0.5° C. per minute to verify if the sample had precipitated after up to 18 hours under magnetic stirring. The same procedure was also used for the solvent mixture solubility tests. The concentrations investigated for the solvent mixture stability were 40 mg/ml and 100 mg/ml. Some solutions in the following example were precipitated by cooling of the solution from a temperature between 50-100° C. to between 10-25° C. at a rate ranging from −0.2 to −0.5° C./minute resulting in a precipitate.", "key": {"[1]": {"conditions": "2-propanol/tetrahydrofuran 95/5 v/v, 40 mg/mL"}, "[2]": {"conditions": "acetone/2-propanol 67/33 v/v, 40 mg/mL"}, "[3]": {"conditions": "acetone/tetrahydrofuran 95/5 v/v, 40 mg/mL"}, "[4]": {"conditions": "ethyl acetate/2-propanol 50/50 v/v, 100 mg/mL"}}, "note": "Like-named read-outs stand apart in the source and are kept apart here."}
{"smiles": "CC/C(=C(\\c1ccc(O)cc1)c1ccc(OCCNC)cc1)c1ccccc1", "note": "[(Z)-endoxifen, (Z)-4-(1-(4-(2-(methylamino)ethoxy)phenyl)-2-phenylbut-1-enyl)phenol]", "values": [{"measurement": "solubility", "setting": "2-propanol/THF (95/5 v/v), organic solvent or mixture, thermodynamic from solid, 2-propanol/THF (95/5 v/v), high temperature, precipitated during cooling, read-out: Solubility", "result": 40, "unit": "mg/mL"}, {"measurement": "solubility", "setting": "2-propanol/tetrahydrofuran 95/5 v/v, organic solvent or mixture, thermodynamic from solid, 2-propanol/tetrahydrofuran 95/5 v/v, 100 mg/mL, high temperature, read-out: Solubility HT (100 mg/mL): Sol. HT", "result": "< 100", "unit": "mg/mL"}, {"measurement": "Solubility HT (40 mg/mL): Clear point", "setting": "[1]", "result": 52.8, "unit": "°C"}, {"measurement": "Solubility HT (40 mg/mL): Cloudy point", "setting": "[1]", "result": 28.6, "unit": "°C"}, {"measurement": "Solubility HT (40 mg/mL): Sol. HT", "setting": "2-propanol/tetrahydrofuran 95/5 v/v, 40 mg/mL, high temperature", "result": "YES"}, {"measurement": "Solubility HT (40 mg/mL): Re-PPT", "setting": "2-propanol/tetrahydrofuran 95/5 v/v, 40 mg/mL, on cooling", "result": "YES"}, {"measurement": "solubility", "setting": "acetone/2-propanol 67/33 v/v, organic solvent or mixture, thermodynamic from solid, acetone/2-propanol 67/33 v/v, 100 mg/mL, high temperature, read-out: Solubility HT (100 mg/mL): Sol. HT", "result": "< 100", "unit": "mg/mL"}, {"measurement": "Solubility HT (40 mg/mL): Clear point", "setting": "[2]", "result": 36.8, "unit": "°C"}, {"measurement": "Solubility HT (40 mg/mL): Re-PPT after 18 hours at −20° C.", "setting": "[2]", "result": "YES"}, {"measurement": "Solubility HT (40 mg/mL): Sol. HT", "setting": "acetone/2-propanol 67/33 v/v, 40 mg/mL, high temperature", "result": "YES"}, {"measurement": "solubility", "setting": "acetone/2-propanol (63/37 v/v), high temperature, precipitated after 18 hours at −20° C.", "result": "soluble"}, {"measurement": "solubility", "setting": "acetone/THF (95/5 v/v), high temperature, precipitated after 18 hours at −20° C.", "result": "soluble"}, {"measurement": "solubility", "setting": "acetone/acetonitrile 50/50 v/v, organic solvent or mixture, thermodynamic from solid, acetone/acetonitrile 50/50 v/v, 40 mg/mL, high temperature, read-out: Solubility HT (40 mg/mL): Sol. HT", "result": "< 40", "unit": "mg/mL"}, {"measurement": "solubility", "setting": "acetone/acetonitrile 50/50 v/v, organic solvent or mixture, thermodynamic from solid, acetone/acetonitrile 50/50 v/v, 100 mg/mL, high temperature, read-out: Solubility HT (100 mg/mL): Sol. HT", "result": "< 100", "unit": "mg/mL"}, {"measurement": "solubility", "setting": "acetone/acetonitrile (50/50 v/v), organic solvent or mixture, thermodynamic from solid, acetone/acetonitrile (50/50 v/v), high temperature, read-out: Solubility", "result": "< 40", "unit": "mg/mL"}, {"measurement": "solubility", "setting": "acetone/ethyl acetate 50/50 v/v, organic solvent or mixture, thermodynamic from solid, acetone/ethyl acetate 50/50 v/v, 40 mg/mL, high temperature, read-out: Solubility HT (40 mg/mL): Sol. HT", "result": "< 40", "unit": "mg/mL"}, {"measurement": "solubility", "setting": "acetone/ethyl acetate 50/50 v/v, organic solvent or mixture, thermodynamic from solid, acetone/ethyl acetate 50/50 v/v, 100 mg/mL, high temperature, read-out: Solubility HT (100 mg/mL): Sol. HT", "result": "< 100", "unit": "mg/mL"}, {"measurement": "solubility", "setting": "acetone/ethyl acetate (50/50 v/v), organic solvent or mixture, thermodynamic from solid, acetone/ethyl acetate (50/50 v/v), high temperature, read-out: Solubility", "result": "< 40", "unit": "mg/mL"}, {"measurement": "solubility", "setting": "acetone/tetrahydrofuran 95/5 v/v, organic solvent or mixture, thermodynamic from solid, acetone/tetrahydrofuran 95/5 v/v, 100 mg/mL, high temperature, read-out: Solubility HT (100 mg/mL): Sol. HT", "result": "< 100", "unit": "mg/mL"}, {"measurement": "Solubility HT (40 mg/mL): Clear point", "setting": "[3]", "result": 47.5, "unit": "°C"}, {"measurement": "Solubility HT (40 mg/mL): Re-PPT after 18 hours at −20° C.", "setting": "[3]", "result": "YES"}, {"measurement": "Solubility HT (40 mg/mL): Sol. HT", "setting": "acetone/tetrahydrofuran 95/5 v/v, 40 mg/mL, high temperature", "result": "YES"}, {"measurement": "solubility", "setting": "butyl ethyl ether/methanol (50/50 v/v), organic solvent or mixture, thermodynamic from solid, butyl ethyl ether/methanol (50/50 v/v), high temperature, read-out: Solubility", "result": "40 to 100", "unit": "mg/mL"}, {"measurement": "solubility", "setting": "butyl methyl ether/methanol 50/50 v/v, organic solvent or mixture, thermodynamic from solid, butyl methyl ether/methanol 50/50 v/v, 100 mg/mL, high temperature, read-out: Solubility HT (100 mg/mL): Sol. HT", "result": "< 100", "unit": "mg/mL"}, {"measurement": "Solubility HT (40 mg/mL): Clear point", "setting": "butyl methyl ether/methanol 50/50 v/v, 40 mg/mL", "result": 31.8, "unit": "°C"}, {"measurement": "Solubility HT (40 mg/mL): Sol. HT", "setting": "butyl methyl ether/methanol 50/50 v/v, 40 mg/mL, high temperature", "result": "YES"}, {"measurement": "Solubility HT (100 mg/mL): Clear point", "setting": "[4]", "result": 59.8, "unit": "°C"}, {"measurement": "Solubility HT (100 mg/mL): Cloudy point", "setting": "[4]", "result": 25, "unit": "°C"}, {"measurement": "Solubility HT (100 mg/mL): Sol. HT", "setting": "ethyl acetate/2-propanol 50/50 v/v, 100 mg/mL, high temperature", "result": "YES"}, {"measurement": "Solubility HT (100 mg/mL): Re-PPT", "setting": "ethyl acetate/2-propanol 50/50 v/v, 100 mg/mL, on cooling", "result": "YES"}, {"measurement": "solubility", "setting": "ethyl acetate/2-propanol (50/50 v/v), organic solvent or mixture, thermodynamic from solid, ethyl acetate/2-propanol (50/50 v/v), high temperature, precipitated during cooling, read-out: Solubility", "result": 100, "unit": "mg/mL"}, {"measurement": "solubility", "setting": "ethyl acetate/THF (95/5 v/v), organic solvent or mixture, thermodynamic from solid, ethyl acetate/THF (95/5 v/v), high temperature, precipitated during cooling, read-out: Solubility", "result": 40, "unit": "mg/mL"}, {"measurement": "solubility", "setting": "ethyl acetate/tetrahydrofuran 95/5 v/v, organic solvent or mixture, thermodynamic from solid, ethyl acetate/tetrahydrofuran 95/5 v/v, 100 mg/mL, high temperature, read-out: Solubility HT (100 mg/mL): Sol. HT", "result": "< 100", "unit": "mg/mL"}, {"measurement": "Solubility HT (40 mg/mL): Clear point", "setting": "ethyl acetate/tetrahydrofuran 95/5 v/v, 40 mg/mL", "result": 56.3, "unit": "°C"}]}
